Each structure is given as a SMILES string. Where “and” joins values, the source holds several entries; their conditions need not be identical. Equal values may be shown once. Read-outs that look alike come from different tables or passages of the source. Marks after values point to notes of the source that are not given here.

Experiment [1] deals with T1, N-acetylgalactosamine-6-sulfatase (GALNS) (Homo sapiens, UniProt P34059).
T1 construct: Isolated leukocytes were disrupted by sonication; from tissue; host or cells: human leukocytes from healthy donors (sonicated homogenate)
T1 sequence (P34059 27-522): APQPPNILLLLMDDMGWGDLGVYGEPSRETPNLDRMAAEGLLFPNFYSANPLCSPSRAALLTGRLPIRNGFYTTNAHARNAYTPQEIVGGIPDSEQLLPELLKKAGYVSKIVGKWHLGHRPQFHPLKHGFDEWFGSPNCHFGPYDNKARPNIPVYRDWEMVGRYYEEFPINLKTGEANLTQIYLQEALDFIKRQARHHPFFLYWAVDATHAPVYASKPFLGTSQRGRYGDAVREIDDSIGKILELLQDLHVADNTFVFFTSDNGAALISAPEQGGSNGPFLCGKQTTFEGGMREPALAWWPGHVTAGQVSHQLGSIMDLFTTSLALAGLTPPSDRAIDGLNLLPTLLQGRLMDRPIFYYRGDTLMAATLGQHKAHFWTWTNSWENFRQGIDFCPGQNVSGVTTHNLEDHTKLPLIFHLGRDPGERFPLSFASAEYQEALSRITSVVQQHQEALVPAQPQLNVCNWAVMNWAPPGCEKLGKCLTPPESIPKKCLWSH
Details: method as in doi:10.1039/C6RA15806D. The settings on record: cited from earlier work.

Experiment [2] addresses T1, N-acetylgalactosamine-6-sulfatase (GALNS). Kind of experiment: GALNS inhibition in leukocyte homogenate from healthy donors (4-methylumbelliferyl-β-galactoside-6-sulfate substrate, fluorescence). In kind it is biochemical. The method, then:
A preliminary biological screening of the newly synthesized multivalent compounds at 1 mM inhibitor concentration was performed against GALNS in leukocytes isolated from healthy donors. Enzymatic assays were performed in triplicate by incubating leukocyte homogenate, compound, and substrate (4-methylumbelliferyl-β-galactoside-6-sulfate.Na) in Na-acetate/acetic acid buffer (pH 4.3) at 37 °C for 17 h, followed by the addition of β-galactosidase from Aspergillus oryzae and further incubation to release 4-methylumbelliferone. The fluorescence was measured, and the inhibition percentages were calculated relative to the control. The results are summarized in Table 1, Table 2, Table 3 and Table 4, along with new inhibition data toward GALNS of multivalent inhibitors whose synthesis was reported previously by our group (23, 26, 30, 51, 52–54). For compounds showing poor to negligible inhibitory activity, only the GALNS inhibition percentage at 1 mM was reported.
Enzymatic assays towards human GALNS in leukocytes isolated from healthy donors.
All experiments on biological materials were performed in accordance with the ethical standards of the institutional research committee and with the 1964 Helsinki Declaration and its later amendments. In keeping with ethical guidelines, all blood and cell samples were obtained for storage and analysed only after written informed consent of the patients (and/or their family members) was obtained, using a form approved by the local Ethics Committee (Assigned code: Lysolate “Late -onset Lysosomal Storage Disorders (LSDs) in the differential diagnosis of neurodegenerative diseases: development of new diagnostic procedures and focus on potential pharmacological chaperones (PCs).” Project ID code: 16774_bio, 5 May 2020, Comitato Etico Regionale per la Sperimentazione Clinica della Regione Toscana, Area Vasta Centro, Florence, Italy). Control and patient samples were anonymized and used only for research purposes.
A preliminary biological screening of compounds at 1 mM was performed towards GALNS in leukocytes isolated from healthy donors (controls). Isolated leukocytes were disrupted by sonication, and a micro BCA protein assay kit (Sigma–Aldrich) was used to determine the total protein amount for the enzymatic assay, according to the manufacturer instructions. Enzyme activity was measured by setting the reaction in 0.2 mL tubes and performing the experiments in triplicates as follows. Compound solution (3 µL), 4.29 μg/μL leukocyte homogenate 1:5 (7 μL) and 20 µL of 4-methylumbelliferyl-β-galactoside-6-sulfate.Na substrate solution (6.66mM) in Na-Acetate/acetic acid buffer (0.1 M/0.1 M, pH 4.3) containing 0.1 M NaCl, 0.02% (w/v) NaN3 and 5 mM Pb-acetate were incubated for 17 h at 37 °C. After step one, the tubes were placed on an ice cooler and the reaction was stopped by addition of 5 µL of Na-phosphate buffer (0.9 M, pH 4.3) containing 0.02 % (w/v) of NaN3 and by efficient mixing with vortex. Then, 10 µL of β-galactosidase from Aspergillus oryzae (β-Gal-A-10U) were added to each sample and samples were incubated for 2 h at 37°C. At the end of this period the tubes were placed on an ice cooler and the samples were transferred in a cooled flat –bottomed 96 well plate and the reaction was immediately stopped with 2 00 µL of NaHCO3/Na2CO3 buffer (0.5 M/0.5 M pH 10.7) containing 0.025% (w/v) of Triton X -100. Fluorescence was measured in a SpectraMax M2 microplate reader (Molecular-Devices) using a 365 nm excitation wavelength and a 435 nm emission wavelength. Percentage of GALNS inhibition was given with respect to the control (without compound).
Experiments were performed in triplicate, and the mean ± S. D. was calculated.
Figure S52. GALNS activity in the absence Figure S53. GALNS activity in the absence (Ctrl) and presence of scaffold 12 at a 1 mM (Ctrl) and presence of the new multivalent […]
The corresponding calculated inhibition of the main text) at a 1 mM concentration in […]

Setting [3] is: calculated considering 34 as the monovalent reference compound.

Broadly, the IC50 is the midpoint of a concentration-inhibition curve. In the case of `O=C(NC(COCc1cn(CCCCCCN2CC(O)C(O)C2CO)nn1)(COCc1cn(CCCCCCN2CC(O)C(O)C2CO)nn1)COCc1cn(CCCCCCN2CC(O)C(O)C2CO)nn1)c1cc(C(=O)NC(COCc2cn(CCCCCCN3CC(O)C(O)C3CO)nn2)(COCc2cn(CCCCCCN3CC(O)C(O)C3CO)nn2)COCc2cn(CCCCCCN3CC(O)C(O)C3CO)nn2)cc(C(=O)NC(COCc2cn(CCCCCCN3CC(O)C(O)C3CO)nn2)(COCc2cn(CCCCCCN3CC(O)C(O)C3CO)nn2)COCc2cn(CCCCCCN3CC(O)C(O)C3CO)nn2)c1` (stereo not shown) [Compound 1], the “% Inhibition (1 mM)” value in experiment [1] (1 mM inhibitor, human leukocyte extracts) is 94 ^[a] %. Besides, the IC50 in experiment [1] (human leukocyte extracts) is 47 ± 5 µM. Also, the rp/n in experiment [1] (positive MVE as previously reported) was 9.2 and 6.5–9.2. The “rp (relative potency)” value was 83 in experiment [2] (setting [3]) and 1.5 in experiment [2] (calculated with respect to the scaffold 38).

On to `OCC1C(O)C(O)CN1CCCCCCn1cc(COCC(COCc2cn(CCCCCCN3CC(O)C(O)C3CO)nn2)(COCc2cn(CCCCCCN3CC(O)C(O)C3CO)nn2)NCc2cc(CNC(COCc3cn(CCCCCCN4CC(O)C(O)C4CO)nn3)(COCc3cn(CCCCCCN4CC(O)C(O)C4CO)nn3)COCc3cn(CCCCCCN4CC(O)C(O)C4CO)nn3)cc(CNC(COCc3cn(CCCCCCN4CC(O)C(O)C4CO)nn3)(COCc3cn(CCCCCCN4CC(O)C(O)C4CO)nn3)COCc3cn(CCCCCCN4CC(O)C(O)C4CO)nn3)c2)nn1` (stereo not shown) [Compound 36], for which the “rp (relative potency)” value in experiment [2] (setting [3]) was 139 ^[b]. For the same molecule, the half-inhibitory concentration (IC50) in experiment [2] (human leukocyte extracts) worked out at 28 ± 5 µM.

The values are drawn from paper PMC12113998, “Exploring Multivalent Architectures for Binding and Stabilization of N-Acetylgalactosamine 6-Sulfatase” (Molecules, 2025).
